Experimental data reported in patent US7223865B2, “Chromogenic compounds, and use thereof as enzyme substrates” (Biomerieux, priority 2003, dated 2007).

Assays:
Assay in all cases: L-alanine-aminopeptidase activity on gelled medium, Example 2
Type in all cases: cell-based
[1] = tested on: Streptococcus pyogenes (067)
Description: (§1) A gelled medium comprising L-Ala-4-AP-10-AA as substrate is prepared as follows: 46.37 g of Columbia agar are added to 1 liter of distilled water and then autoclaved. The reaction medium is separated into three media of equivalent volume. Each of these media comprises, respectively, 0.1 g/l, 0.2 g/l, 0.4 g/l of L-Ala-4-AP-10-AA provided by means of a stock solution in DMSO.
(§2) Microorganisms derived from the applicant's collection were seeded onto each of the media, by delimitation as three dials, using a suspension at 0.5 McFarland. The dishes were incubated at 37° C. for 48 hours. The colonies formed were examined visually after incubation for 24 and 48 hours. The color of these colonies and also the intensity of this color were noted.
(§3) The results are expressed as color intensity, using an arbitrary scale range of from 0 to 4 as a basis.

[2] = tested on: Staphylococcus aureus (070)
Description: as §1, §2, §3

Citrobacter koseri (090) = settings: for Intensity: scale 0 to 4
Description: as §1, §2, §3

Escherichia coli (032) = settings: for Intensity: scale 0 to 4
Description: as §1, §2, §3

Listeria innocua (036) = tested on: Listeria innocua (036)
Description: as §1, §2, §3

Candida albicans (056) = tested on: Candida albicans (056)
Description: as §1, §2, §3

Proteus mirabilis (103) = settings: for Intensity: scale 0 to 4
Description: as §1, §2, §3

[3] = tested on: Enterococcus faecalis (075); settings: for Intensity: scale 0 to 4
Description: as §1, §2, §3

[4] = tested on: Klebsiella pneumoniae (023); settings: for Intensity: scale 0 to 4
Description: as §1, §2, §3

C=CC[n+]1c2ccccc2c(-c2ccc(NC(=O)[C@H](C)N)cc2)c2ccccc21.[Cl-] [L-Ala-4-AP-10-AA, L-alanyl-9-(4-aminophenyl)-10-allylacridinium chloride]
Color ([1]; 0.1 g/l, 24 H): inhibited
Color ([1]; 0.1 g/l, 48 h): colorless
Color ([1]; 0.2 g/l, 24 H): inhibited
Color ([1]; 0.2 g/l, 48 h): colorless
Color ([1]; 0.4 g/l, 24 H): inhibited
Color ([1]; 0.4 g/l, 48 h): colorless
Color ([2]; 0.1 g/l, 24 H): inhibited
Color ([2]; 0.1 g/l, 48 h): inhibited
Color ([2]; 0.2 g/l, 24 H): inhibited
Color ([2]; 0.2 g/l, 48 h): inhibited
Color ([2]; 0.4 g/l, 24 H): inhibited
Color ([2]; 0.4 g/l, 48 h): inhibited
Color (Citrobacter koseri (090); 0.1 g/l, 24 H): beige
Intensity (Citrobacter koseri (090); 0.1 g/l, 24 H): 0.5
Color (Citrobacter koseri (090); 0.1 g/l, 48 h): beige
Intensity (Citrobacter koseri (090); 0.1 g/l, 48 h): 0.5
Color (Citrobacter koseri (090); 0.2 g/l, 24 H): pink-
Intensity (Citrobacter koseri (090); 0.2 g/l, 24 H): 1
Color (Citrobacter koseri (090); 0.2 g/l, 48 h): pink-
Intensity (Citrobacter koseri (090); 0.2 g/l, 48 h): 2
Color (Citrobacter koseri (090); 0.4 g/l, 24 H): pink-
Intensity (Citrobacter koseri (090); 0.4 g/l, 24 H): 3
Color (Citrobacter koseri (090); 0.4 g/l, 48 h): pink-
Intensity (Citrobacter koseri (090); 0.4 g/l, 48 h): 3.5
Color (Escherichia coli (032); 0.1 g/l, 24 H): beige
Intensity (Escherichia coli (032); 0.1 g/l, 24 H): 0.5
Color (Escherichia coli (032); 0.1 g/l, 48 h): beige
Intensity (Escherichia coli (032); 0.1 g/l, 48 h): 0.5
Color (Escherichia coli (032); 0.2 g/l, 24 H): pink-
Intensity (Escherichia coli (032); 0.2 g/l, 24 H): 2
Color (Escherichia coli (032); 0.2 g/l, 48 h): pink-
Intensity (Escherichia coli (032); 0.2 g/l, 48 h): 2
Color (Escherichia coli (032); 0.4 g/l, 24 H): pink-
Intensity (Escherichia coli (032); 0.4 g/l, 24 H): 2.5
Color (Escherichia coli (032); 0.4 g/l, 48 h): pink-
Intensity (Escherichia coli (032); 0.4 g/l, 48 h): 3
Color (Listeria innocua (036); 0.1 g/l, 24 H): colorless
Color (Listeria innocua (036); 0.1 g/l, 48 h): colorless
Color (Listeria innocua (036); 0.2 g/l, 24 H): colorless
Color (Listeria innocua (036); 0.2 g/l, 48 h): colorless
Color (Listeria innocua (036); 0.4 g/l, 24 H): colorless
Color (Listeria innocua (036); 0.4 g/l, 48 h): colorless
Color (Candida albicans (056); 0.1 g/l, 24 H): colorless
Color (Candida albicans (056); 0.1 g/l, 48 h): colorless
Color (Candida albicans (056); 0.2 g/l, 24 H): colorless
Color (Candida albicans (056); 0.2 g/l, 48 h): colorless
Color (Candida albicans (056); 0.4 g/l, 24 H): colorless
Color (Candida albicans (056); 0.4 g/l, 48 h): colorless
Color (Proteus mirabilis (103); 0.1 g/l, 24 H): beige
Intensity (Proteus mirabilis (103); 0.1 g/l, 24 H): traces
Color (Proteus mirabilis (103); 0.1 g/l, 48 h): beige
Intensity (Proteus mirabilis (103); 0.1 g/l, 48 h): traces
Color (Proteus mirabilis (103); 0.2 g/l, 24 H): pink-
Intensity (Proteus mirabilis (103); 0.2 g/l, 24 H): 0.5
Color (Proteus mirabilis (103); 0.2 g/l, 48 h): pink-
Intensity (Proteus mirabilis (103); 0.2 g/l, 48 h): 1
Color (Proteus mirabilis (103); 0.4 g/l, 24 H): pink-
Intensity (Proteus mirabilis (103); 0.4 g/l, 24 H): 3
Color (Proteus mirabilis (103); 0.4 g/l, 48 h): pink-
Intensity (Proteus mirabilis (103); 0.4 g/l, 48 h): 3
Color ([3]; 0.1 g/l, 24 H): colorless
Color ([3]; 0.1 g/l, 48 h): colorless
Color ([3]; 0.2 g/l, 24 H): orange
Intensity ([3]; 0.2 g/l, 24 H): traces
Color ([3]; 0.2 g/l, 48 h): orange
Intensity ([3]; 0.2 g/l, 48 h): 0.5
Color ([3]; 0.4 g/l, 24 H): orange
Intensity ([3]; 0.4 g/l, 24 H): traces
Color ([3]; 0.4 g/l, 48 h): orange
Intensity ([3]; 0.4 g/l, 48 h): 1
Color ([4]; 0.1 g/l, 24 H): beige
Intensity ([4]; 0.1 g/l, 24 H): traces
Color ([4]; 0.1 g/l, 48 h): beige
Intensity ([4]; 0.1 g/l, 48 h): traces
Color ([4]; 0.2 g/l, 24 H): pink-
Intensity ([4]; 0.2 g/l, 24 H): 1
Color ([4]; 0.2 g/l, 48 h): pink-
Intensity ([4]; 0.2 g/l, 48 h): 2
Color ([4]; 0.4 g/l, 24 H): pink-
Intensity ([4]; 0.4 g/l, 24 H): 3
Color ([4]; 0.4 g/l, 48 h): pink-
Intensity ([4]; 0.4 g/l, 48 h): 3.5
